Measured values from PMC5011342, “A high throughput drug screening assay to identify compounds that promote oligodendrocyte differentiation using acutely dissociated and purified oligodendrocyte precursor cells” (BMC Research Notes, 2016).
Read-outs that look alike come from different tables or passages of the source.

Tests used:
[1] = tested on: acutely dissociated and purified rat OPCs; test: Acute OL differentiation assay (MBP expression/cell, immunofluorescent image quantification); assay type: cell-based
Outline: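 Oligodendrocyte precursor cells were enriched from P6-P7 Sprague–Dawley rat brains by immunopanning (RAN-2 and GalC depletion, O4 selection), plated at 5000 cells/well in serum-free, mitogen-free differentiation media on PDL/laminin 96-well view plates, centrifuged at 200×g, and pre-incubated 1–2 h before test compounds were added in quadruplicate. On DIV4, cells were fixed, stained for MBP and DAPI, imaged automatically, and MBP expression per cell was quantified.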

expanded OPCs = test: cells; settings: for viability at 0.1 µM / viability at 1 µM / viability at 10 µM: Rattus norvegicus, 72 h
Outline: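 Expanded OPCs seeded at 10,000 cells/well in differentiation media, then exposed to NCC library compounds at 10, 1 and 0.1 µM (quadruplicate, 0.1% DMSO) for three days. Viability read as alamarBlue fluorescence (560/590 nm) after 4 h at 37 °C; tunicamycin 5 ng/ml served as toxicity control.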

[2] = Rattus norvegicus, 2 uM test compound, relative to quetiapine, sheet "All OLga data", read-out: OL differentiation, 2 uM (% Quet)
[3] = Rattus norvegicus, 10 uM test compound, relative to quetiapine, sheet "All OLga data", read-out: OL differentiation, 10 uM (% Quet)
[4] = read-out: 0.1 µM (% DMSO), alamarBlue viability of expanded OPCs, compound at 0.1 µM, sheet All Tox data
[5] = read-out: 1 µM (% DMSO), alamarBlue viability of expanded OPCs, compound at 1 µM, sheet All Tox data
[6] = read-out: 10 µM (% DMSO), alamarBlue viability of expanded OPCs, compound at 10 µM, sheet All Tox data
[7] = Rattus norvegicus, test compound at 2 uM, NCC library screen, sheet "All OLga data", relative to quetiapine, read-out: 2 uM (% Quet)
[8] = Rattus norvegicus, test compound at 10 uM, NCC library screen, sheet "All OLga data", relative to quetiapine, read-out: 10 uM (% Quet)
[9] = read-out: 0.1 µM (% DMSO), alamarBlue viability, NCC library compound at 0.1 µM, sheet "All Tox data"
[10] = read-out: 1 µM (% DMSO), alamarBlue viability, NCC library compound at 1 µM, sheet "All Tox data"
[11] = read-out: 10 µM (% DMSO), alamarBlue viability, NCC library compound at 10 µM, sheet "All Tox data"
[12] = Rattus norvegicus, test compound at 2 uM, MBP expression relative to quetiapine, NCC library screen, sheet "All OLga data", read-out: 2 uM (% Quet)
[13] = Rattus norvegicus, test compound at 10 uM, MBP expression relative to quetiapine, NCC library screen, sheet "All OLga data", read-out: 10 uM (% Quet)
[14] = alamarBlue viability of expanded OPCs, compound at 0.1 µM, relative to DMSO control
[15] = alamarBlue viability of expanded OPCs, compound at 1 µM, relative to DMSO control
[16] = alamarBlue viability of expanded OPCs, compound at 10 µM, relative to DMSO control

Row | Compound | activation at 2 µM [1, 2] | activation at 10 µM [1, 3] | viability at 0.1 µM (expanded OPCs; [4]) | viability at 1 µM (expanded OPCs; [5]) | viability at 10 µM (expanded OPCs; [6]) | viability at 0.1 µM (expanded OPCs; [9]) | viability at 1 µM (expanded OPCs; [10]) | viability at 10 µM (expanded OPCs; [11]) | also measured
1 | CC[C@@H]1C=CC=CC[C@H](C)[C@@H](O)[C@@H](C)C(=O)[C@H](C)[C@@H](O)[C@H](C)C(=O)[C@H](C)[C@@H](O)[C@H](C)C=CC(=O)O[C@H]2[C@@H](C)[C@@H](CC1)O[C@@]1(CC[C@@H](C)[C@@H](C[C@H](C)O)O1)[C@@H]2C [Oligomycin C] | -33.8% | -128% | 86.9% | 87% | 68.4% | – | – | – | –
2 | CN1CC[C@]23CCCC[C@H]2[C@H]1Cc1ccc(O)cc13 [Levorphanol] | -6.9% | 17% | 77.4% | 83.4% | 74% | – | – | – | –
3 | CN1C(=O)CC[C@H]1c1cccnc1 [Cotinine] | -8.8% | 21.8% | 88.9% | 92% | 98.7% | – | – | – | –
4 | COc1ccc(/C=C/C(=O)Nc2ccccc2C(=O)O)cc1OC [Tranilast] | 5.9% | -18.5% | 90.5% | 90% | 85.8% | – | – | – | –
5 | CCCc1nc2c(C)cc(-c3nc4ccccc4n3C)cc2n1Cc1ccc(-c2ccccc2C(=O)O)cc1 [Telmisartan] | – | – | – | – | – | 95.6% | 82.3% | 53.3% | activation at 2 µM [1, 7]: -6.1%; activation at 10 µM [1, 8]: -61.8%
6 | HTMT | – | – | – | – | – | – | – | – | 2 uM (% Quet) ([1]; test compound at 2 uM, NCC library screen, sheet "All OLga data", relative to quetiapine): -16.4 % Quet; 10 uM (% Quet) ([1]; test compound at 10 uM, NCC library screen, sheet "All OLga data", relative to quetiapine): 21.8 % Quet; 0.1 µM (% DMSO) (expanded OPCs; alamarBlue viability, NCC library compound at 0.1 µM, sheet "All Tox data"): 71.6 % DMSO; 1 µM (% DMSO) (expanded OPCs; alamarBlue viability, NCC library compound at 1 µM, sheet "All Tox data"): 71.0 % DMSO; 10 µM (% DMSO) (expanded OPCs; alamarBlue viability, NCC library compound at 10 µM, sheet "All Tox data"): 63.6 % DMSO
7 | Nc1cc(N2CCCCC2)nc(N)[n+]1[O-] [Minoxidil] | – | – | – | – | – | – | – | – | activation at 2 µM [1, 12]: 13.4%; activation at 10 µM [1, 13]: -4.2%; 0.1 µM (% DMSO) (expanded OPCs; [14]): 93.0 % DMSO; 1 µM (% DMSO) (expanded OPCs; [15]): 102.8 % DMSO; 10 µM (% DMSO) (expanded OPCs; [16]): 89.5 % DMSO
8 | COC(=O)[C@H](c1ccccc1Cl)N1CCc2sccc2C1 [Clopidogrel] | – | – | – | – | – | – | – | – | activation at 0.4 µM ([1]; Rattus norvegicus, test compound at 0.4 uM, MBP expression relative to quetiapine, NCC library screen, sheet "All OLga data", read-out: 0.4 uM (% Quet)): -4%; activation at 2 µM [1, 12]: -15%; 0.1 µM (% DMSO) (expanded OPCs; [14]): 103.8 % DMSO; 1 µM (% DMSO) (expanded OPCs; [15]): 94.8 % DMSO; 10 µM (% DMSO) (expanded OPCs; [16]): 75.7 % DMSO
9 | CN(CCOc1ccc(NS(C)(=O)=O)cc1)CCc1ccc(NS(C)(=O)=O)cc1 [Dofetilide, reference compound] | – | – | – | – | – | 96.1% | 98% | 122% | activation at 2 µM [1, 7]: 19.4%; activation at 10 µM [1, 8]: 31.8%; EC50 ([1]; Rattus norvegicus, average EC50 for induction of OL differentiation from independent biological replicates, eight concentrations): 14 µM; hit in OL differentiation assay, MRF-TMC ([1]; ● = confirmed hit in this paper's assay): ●
10 | NC(=O)OCC(COC(N)=O)c1ccccc1 [Felbamate] | -1.8% | -7.9% | – | – | – | 92.3% | 95.5% | 91.9% | –
11 | O=C1CC[C@@]2(O)[C@H]3Cc4ccc(O)c5c4[C@@]2(CCN3CC2CC2)[C@H]1O5 [Naltrexone] | – | – | – | – | – | – | – | – | activation at 2 µM [1, 12]: 12.8%; activation at 10 µM [1, 13]: -5.6%; 0.1 µM (% DMSO) (expanded OPCs; [14]): 99.5 % DMSO; 1 µM (% DMSO) (expanded OPCs; [15]): 101.6 % DMSO; 10 µM (% DMSO) (expanded OPCs; [16]): 97.3 % DMSO
12 | CC(=O)SCC(Cc1ccccc1)C(=O)NCC(=O)OCc1ccccc1 (stereo not shown) [Racecadotril] | 23% | 56.4% | 87.4% | 92.9% | 77.6% | – | – | – | –
13 | C#C[C@]1(O)CC[C@H]2[C@@H]3CCc4cc(OC)ccc4[C@H]3CC[C@@]21C [Mestranol] | 92.5% | -6.7% | – | – | – | 102% | 103% | 114% | –
